Key:
in vitro [1] = conditions: both, human
Outline: (§1)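 LC-MS/MS tracked both dosed prodrug and expected drug PEA over 60 min (0, 10, 20, 30, 60 min samples) at 37 °C. Incubations held 1 μM test article in intestinal S9, cofactor-initiated after warm-up, stopped with ice-cold acidified acetonitrile.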

in vitro [2] = conditions: male, Sprague-Dawley, rat
Outline: as §1

in vitro [3] = conditions: male, CD-1, mouse
Outline: (§2)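 Test article at 1 μM final was incubated at 37° C with S9 reaction mixture, and the reaction was started by adding cofactor cocktail. Samples taken at 0, 10, 20, 30 and 60 min were quenched in acidified acetonitrile, and prodrug and PEA were measured by LC-MS/MS. Half-life came from single-phase exponential decay of percent remaining versus time 0.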

in vitro [4] = conditions: male, Beagle, dog
Outline: as §2

## CCCCCCCCCCCCCCCC(=O)NCCOC(=O)CCC(=O)OCC(O)CO (stereo not drawn) [Compound I-9]
In vitro [1]; 0 min, 1 μM
  Concentration (μM) of analyte PEA, 0 min: 0.048 µM
  Concentration of analyte I-9: 610 nM
  Concentration of analyte PEA: 210 nM
In vitro [1]; 10 min, 1 μM
  Concentration (μM) of analyte PEA, 10 min: 0.18 µM
  Concentration of analyte I-9: 360 nM
  Concentration of analyte PEA: 500 nM
In vitro [1]; 20 min, 1 μM
  Concentration (μM) of analyte PEA, 20 min: 0.23 µM
  Concentration of analyte I-9: 99 nM
  Concentration of analyte PEA: 690 nM
In vitro [1]; 30 min, 1 μM
  Concentration (μM) of analyte PEA, 30 min: 0.22 µM
  Concentration of analyte I-9: 29 nM
  Concentration of analyte PEA: 650 nM
In vitro [1]; 60 min, 1 μM
  Concentration (μM) of analyte PEA, 60 min: 0.18 µM
  Concentration of analyte I-9: 4.3 nM
  Concentration of analyte PEA: 660 nM
In vitro [1]; s9, 0 h, 1 μM
  % Remaining of Initial (n = 1): 100%
  % Remaining of Initial (n = 1), 0 min: 100%
In vitro [1]; s9, 10 min, 1 μM
  % Remaining of Initial (n = 1): 59%
  % Remaining of Initial (n = 1), 10 min: 28%
In vitro [1]; s9, 20 min, 1 μM
  % Remaining of Initial (n = 1): 16%
  % Remaining of Initial (n = 1), 20 min: 5.7%
In vitro [1]; s9, 0.5 h, 1 μM
  % Remaining of Initial (n = 1), 30 min: 1.2%
In vitro [1]; s9, 1 h, 1 μM
  % Remaining of Initial (n = 1): <1.0%
  % Remaining of Initial (n = 1), 60 min: <1.0%
In vitro [1]; s9, CLint
  microsomal CLint at 1 μM: > 69.3 µL/min/mg
In vitro [1]; s9, CLint (mL/min/mg protein)
  microsomal CLint at 1 μM: 131 µL/min/mg
In vitro [1]; s9, CLint, calculated value in parentheses
  microsomal CLint at 1 μM: 75.3 µL/min/mg
In vitro [1]; s9, Half-Life, calculated value in parentheses
  half-life at 1 μM: 9.2 min
In vitro [1]; s9, Half-life
  half-life at 1 μM: < 10 min
In vitro [1]; s9, Half-life (min)
  half-life at 1 μM: 5.3 min
In vitro [2]; 0 min, 1 μM
  Concentration (μM) of analyte PEA, 0 min: 0.034 µM
  Concentration of analyte I-9: 770 nM
  Concentration of analyte PEA: 31 nM
In vitro [2]; 10 min, 1 μM
  Concentration (μM) of analyte PEA, 10 min: 0.22 µM
  Concentration of analyte I-9: 910 nM
  Concentration of analyte PEA: 88 nM
In vitro [2]; 20 min, 1 μM
  Concentration (μM) of analyte PEA, 20 min: 0.31 µM
  Concentration of analyte I-9: 680 nM
  Concentration of analyte PEA: 130 nM
In vitro [2]; 30 min, 1 μM
  Concentration (μM) of analyte PEA, 30 min: 0.36 µM
  Concentration of analyte I-9: 580 nM
  Concentration of analyte PEA: 160 nM
In vitro [2]; 60 min, 1 μM
  Concentration (μM) of analyte PEA, 60 min: 0.39 µM
  Concentration of analyte I-9: 380 nM
  Concentration of analyte PEA: 240 nM
In vitro [2]; s9, 0 h, 1 μM
  % Remaining of Initial (n = 1): 100%
  % Remaining of Initial (n = 1), 0 min: 100%
In vitro [2]; s9, 10 min, 1 μM
  % Remaining of Initial (n = 1): 119%
  % Remaining of Initial (n = 1), 10 min: 45%
In vitro [2]; s9, 20 min, 1 μM
  % Remaining of Initial (n = 1): 88%
  % Remaining of Initial (n = 1), 20 min: 26%
In vitro [2]; s9, 0.5 h, 1 μM
  % Remaining of Initial (n = 1): 75%
  % Remaining of Initial (n = 1), 30 min: 15%
In vitro [2]; s9, 1 h, 1 μM
  % Remaining of Initial (n = 1): 49%
  % Remaining of Initial (n = 1), 60 min: 3.6%
In vitro [2]; s9, CLint
  microsomal CLint at 1 μM: 125 µL/min/mg
In vitro [2]; s9, Half-life
  half-life at 1 μM: 55 min
In vitro [3]; 0 min, 1 μM
  Concentration (μM) of analyte PEA, 0 min: 0.0024 µM
In vitro [3]; 10 min, 1 μM
  Concentration (μM) of analyte PEA, 10 min: 0.12 µM
In vitro [3]; 20 min, 1 μM
  Concentration (μM) of analyte PEA, 20 min: 0.15 µM
In vitro [3]; 30 min, 1 μM
  Concentration (μM) of analyte PEA, 30 min: 0.19 µM
In vitro [3]; 60 min, 1 μM
  Concentration (μM) of analyte PEA, 60 min: 0.23 µM
In vitro [3]; s9, 0 h, 1 μM
  % Remaining of Initial (n = 1), 0 min: 100%
In vitro [3]; s9, 10 min, 1 μM
  % Remaining of Initial (n = 1), 10 min: 56%
In vitro [3]; s9, 20 min, 1 μM
  % Remaining of Initial (n = 1), 20 min: 33%
In vitro [3]; s9, 0.5 h, 1 μM
  % Remaining of Initial (n = 1), 30 min: 21%
In vitro [3]; s9, 1 h, 1 μM
  % Remaining of Initial (n = 1), 60 min: 6.5%
In vitro [3]; s9, CLint (mL/min/mg protein)
  microsomal CLint at 1 μM: 53.7 µL/min/mg
In vitro [3]; s9, Half-life (min)
  half-life at 1 μM: 13 min
In vitro [4]; 0 min, 1 μM
  Concentration (μM) of analyte PEA, 0 min: 0.26 µM
In vitro [4]; 10 min, 1 μM
  Concentration (μM) of analyte PEA, 10 min: 0.48 µM
In vitro [4]; 20 min, 1 μM
  Concentration (μM) of analyte PEA, 20 min: 0.47 µM
In vitro [4]; 30 min, 1 μM
  Concentration (μM) of analyte PEA, 30 min: 0.46 µM
In vitro [4]; 60 min, 1 μM
  Concentration (μM) of analyte PEA, 60 min: 0.45 µM
In vitro [4]; s9, 0 h, 1 μM
  % Remaining of Initial (n = 1), 0 min: 100%
In vitro [4]; s9, 10 min, 1 μM
  % Remaining of Initial (n = 1), 10 min: <1.0%
In vitro [4]; s9, 20 min, 1 μM
  % Remaining of Initial (n = 1), 20 min: <1.0%
In vitro [4]; s9, 0.5 h, 1 μM
  % Remaining of Initial (n = 1), 30 min: <1.0%
In vitro [4]; s9, 1 h, 1 μM
  % Remaining of Initial (n = 1), 60 min: <1.0%
In vitro [4]; s9, CLint (mL/min/mg protein)
  microsomal CLint at 1 μM: > 691 µL/min/mg
In vitro [4]; s9, Half-life (min)
  half-life at 1 μM: < 1 min

Reference: patent publication US11547681B2, “N-acylethanolamide derivatives and uses thereof” (ELIEM THERAPEUTICS, INC., priority 2016, dated 2023)
